Reference: publication PMC5748751, “Study of Structure and Permeability Relationship of Flavonoids in Caco-2 Cells” (Nutrients, 2017)
Like-named read-outs stand apart in the source and are kept apart here. Marks after values point to notes of the source that are not given here.

Assays:
[1] = Cell viability (MTT) assay of flavonoids in Caco-2 cells; assay type: cell-based; conditions: human
Experimental: The cytotoxicity of flavonoids and colchicine was evaluated by MTT assay. The cells were grown in 96-well plates at a density of 1 × 10^4 cells/well. After incubation with 40 μM flavonoid for 24 h, the cells were further incubated with an MTT solution (0.5 mg/mL) for 4 h at 37 °C. Finally, after removal of the supernatant, 150 μL dimethyl sulphoxide was added to each well to dissolve crystallized MTT. Absorbance was read at 570 nm with a multiskan spectrum microplate reader (Thermo Labsystems, Waltham, MA, USA). The percentage cell viability relative to that of the control cells was used as the cytotoxicity measure.

Caco-2 cell monolayer = assay: Cellular accumulation (CA) of flavonoids in Caco-2 cell monolayer; conditions: for CA A to B: accumulated in cell monolayer after transport apical to basolateral; for CA A to B / CA B to A: 40 μM, 1 h, normalized to cellular protein, mean ± SD, n = 3; for CA B to A: accumulated in cell monolayer after transport basolateral to apical; for CA: both sides (CA A to B and CA B to A)
[2] = Permeability (bidirectional transport) of flavonoids in Caco-2 cell monolayers; assay type: in vitro ADME; conditions: human; for Papp A→B at 60 min, 40 μM: Caco-2, apical to basolateral; for Papp A→B at 60 min, 40 μM / Papp B→A at 60 min, 40 μM: incubation 60 min, 37 °C, D-Hank's pH 7.4, mean ± SD, n = 3–6; for Papp B→A at 60 min, 40 μM: Caco-2, basolateral to apical; for Papp at 1 h, 40 μM: Caco-2 monolayer
Experimental: Caco-2 cells were cultured in MEM supplemented with 10% FBS, 1% NEAA, penicillin (100 U/mL) and streptomycin (100 μg/mL) in an atmosphere of 5% CO2 and 90% relative humidity at 37 °C. All cells used in this study were between passages 35 and 45 [16].
Caco-2 cells were seeded at a density of about 8 × 10^4 cells/cm^2 on a 12 wells Millicell hanging insert and left to grow for 19–21 days to reach confluence. Culture medium was replaced every other day for 14 days and daily thereafter. The integrity and transport ability of the Caco-2 cells monolayer were examined by measuring the trans-epithelial electrical resistance (TEER) with a Millicell voltammeter (Millicell ERS-2, Merck Millipore, Billerica, MA, USA) and running standard assays using Lucifer yellow CH as paracellular flux marker. […] Differentiation of Caco-2 cells was checked after 4 and 12 days by determining the activity of alkaline phosphatase with an assay kit (Nanjing Jiancheng Bioengineering Institute, Nanjing, China) and after 21 days transmission electron microscopy was performed on Caco-2 monolayer to evaluate differentiation.
The Caco-2 cell monolayer was washed with D-Hank’s buffer (pH 7.4). Then, the flavonoid (40 μM) was added to either the apical (AP, 0.4 mL) or basolateral (BL, 1.95 mL) side, while the receiving chamber contained the corresponding volume of D-Hank’s buffer and incubated for 1 h at 37 °C. Solutions from both AP and BL sides of Caco-2 cell monolayer were collected and immediately frozen, lyophilized and preserved at −80 °C for high performance liquid chromatography (HPLC) analysis. Papp was calculated from Equation (1), where ΔQ/Δt is the rate of the flavonoid on the accepting chamber (μM/s), A is the surface area of the hanging insert (cm^2) and C0 is the initial concentration of tested flavonoid in donating chamber (μM/mL).(1) Papp=ΔQ/Δt/AC0

[3] = Recovery (mass balance) of flavonoids during Caco-2 transport assay; assay type: in vitro ADME; conditions: human, Caco-2, mass balance, both sides of insert plus cells
Experimental: The recovery of the flavonoid glycosides during the transport assays was determined by mass balance and was measured as total amount of the flavonoids on both sides of the insert and in the Caco-2 cells.

[4] = Stability of flavonoids in D-Hank's buffer relative to methanol; assay type: physicochemical; conditions: 20 μM flavonoid, HPLC peak area in D-Hank's / peak area in methanol × 100%
Experimental: The relative stability was expressed as the relative appearance of flavonoids in different solvents. Each flavonoid (20 μM) was dissolved in two different solvents, D-Hank’s and methanol. […] Relative concentration in D-Hank’s (%) = Peak area in D-Hank’s/Peak area in methanol × 100%(3)

[5] = transport apical to basolateral, read-out: Recovery (A to B, %)
[6] = transport basolateral to apical, read-out: Recovery (B to A, %)
[7] = Caco-2, pH 7.4, as stated in text, direction not specified (bilateral)

Row | Compound | CA A to B (Caco-2 cell monolayer) | CA B to A (Caco-2 cell monolayer) | CA (Caco-2 cell monolayer) [µmol/g] | Papp A→B at 60 min, 40 μM [2] [×10⁻⁶ cm/s] | Papp B→A at 60 min, 40 μM [2] [×10⁻⁶ cm/s] | Papp at 1 h, 40 μM ([2]; pH 7.4, direction not specified (bilateral)) [×10⁻⁶ cm/s] | recovery [3, 5] [%] | recovery [3, 6] [%] | Relative concentration of flavonoids, D-Hank's/methanol (%) [4] [%] | efflux ratio at 60 min, 40 μM ([2]; pH 7.4, Caco-2 monolayer, 60 min, read-out: Ratiop (ratio of Papp B to A to Papp A to B)) | viability at 24 h, 40 μM [1] [%] | Papp at 1 h, 40 μM [2, 7] [×10⁻⁶ cm/s]
1 | O=c1cc(-c2ccc(O)cc2)oc2c([C@@H]3OC[C@H](O)[C@H](O)[C@H]3O)c(O)c([C@@H]3O[C@H](CO)[C@@H](O)[C@H](O)[C@H]3O)c(O)c12 [Compound 8, Schaftoside] | 0.024 ± 0.002 µmol/g | 0.044 ± 0.007 µmol/g | < 0.26 | 3.28 ± 0.32 | 2.81 ± 0.24 |  | 72.3 ± 18.8 | 61.8 ± 0.72 |  |  | 103 ± 4.77 | < 6
2 | O=c1c(O)c(-c2ccccc2)oc2cc(O)cc(O)c12 [Compound 9, Galangin] | 3.780 ± 0.711 µmol/g | 9.286 ± 0.859 ^b μmol/g |  | 1.94 ± 0.41 | 1.75 ± 0.44 |  |  |  |  |  | 106 ± 7.79 | 
3 | COc1c(O)cc(O)c2c(=O)cc(-c3ccccc3)oc12 [Compound 3, Wogonin] | 1.038 ± 0.212 µmol/g | 1.586 ± 0.045 µmol/g |  | 16.4 ± 1.2 | 18.1 ± 1.62 |  |  |  |  |  | 97.7 ± 8.39 | 
4 | O=c1cc(-c2ccccc2)oc2cc(O)c(O)c(O)c12 [Compound 4, Baicalein] | 1.182 ± 0.341 µmol/g | 3.272 ± 0.445 ^a μmol/g |  | 1.95 ± 0.53 | 0.71 ± 0.21 |  |  |  |  |  | 96.7 ± 6.31 | < 2
5 | COc1cc(-c2oc3cc(O)cc(O)c3c(=O)c2O)ccc1O [Compound 15, Isorhamnetin] | 0.332 ± 0.066 ^a μmol/g | 0.076 ± 0.048 µmol/g |  | 1.09 ± 0.02 | 0.9 ± 0.42 |  |  |  |  |  | 93.6 ± 1.22 | 
6 | O=c1c(-c2ccc(O)cc2)coc2cc(O)ccc12 [Compound 26, Daidzein] | 0.500 ± 0.104 µmol/g | 1.236 ± 0.117 ^b μmol/g |  | 33.9 ± 3.55 | 42.2 ± 3.11 |  |  |  |  |  | 105 ± 4.56 | > 30

Second part, led by results:

Row | CA A to B (Caco-2 cell monolayer) | CA B to A (Caco-2 cell monolayer) | CA (Caco-2 cell monolayer) [µmol/g] | Papp A→B at 60 min, 40 μM [2] [×10⁻⁶ cm/s] | Papp B→A at 60 min, 40 μM [2] [×10⁻⁶ cm/s] | Papp at 1 h, 40 μM ([2]; pH 7.4, direction not specified (bilateral)) [×10⁻⁶ cm/s] | recovery [3, 5] [%] | recovery [3, 6] [%] | Relative concentration of flavonoids, D-Hank's/methanol (%) [4] [%] | efflux ratio at 60 min, 40 μM ([2]; pH 7.4, Caco-2 monolayer, 60 min, read-out: Ratiop (ratio of Papp B to A to Papp A to B)) | Compound | viability at 24 h, 40 μM [1] [%] | Papp at 1 h, 40 μM [2, 7] [×10⁻⁶ cm/s]
7 | 1.415 ± 0.276 µmol/g | 2.777 ± 0.220 ^b μmol/g | < 5 | 31.1 ± 2.13 | 30.5 ± 2.13 | > 30 |  |  |  |  | O=c1c(-c2ccc(O)cc2)coc2cc(O)cc(O)c12 [Compound 27, Genistein] | 103 ± 3.37 | 
8 | 0.129 ± 0.008 ^b μmol/g | 0.060 ± 0.011 µmol/g |  | 8.23 ± 0.87 | 21.6 ± 0.32 |  | 81.5 ± 6.7 | 90.1 ± 1.39 |  |  | O=c1c(O)c(-c2ccc(O)cc2O)oc2cc(O)cc(O)c12 [Compound 11, Morin] | 102 ± 3.62 | 
9 |  |  |  | 2.55 ± 1.45 | 4.68 ± 0.41 |  |  |  | 52.10 | 1.84 | O=c1c(O)c(-c2ccc(O)c(O)c2)oc2cc(O)cc(O)c12 [Compound 10, Quercetin] | 102 ± 5.19 | 
10 | 2.746 ± 0.478 ^b μmol/g | 0.496 ± 0.249 µmol/g |  | 0.35 ± 0.06 | 0.23 ± 0.03 |  |  |  |  |  | COc1ccc(-c2oc3cc(O)cc(O)c3c(=O)c2O)cc1 [Compound 13, Kaempferide] | 102 ± 6.15 | 
11 | 8.368 ± 1.039 µmol/g | 11.887 ± 1.247 ^a μmol/g | > 6 | 6.68 ± 0.93 | 5.92 ± 0.45 |  |  |  |  |  | O=c1c(O)c(-c2ccc(O)cc2)oc2cc(O)cc(O)c12 [Compound 12, Kaempferol] | 100 ± 4.53 | 
